Measurements: patent publication US5876715A, “Antibodies that bind novel carbohydrate ligands (myelorollins) that cause E-selectin dependent cell rolling, and uses thereof” (The Biomembrane Institute, priority 1996, dated 1999)
Entries after “also recorded” stand apart in the source; their conditions may differ.

What follows are substances tested on E-selectin-expressing CHO cells (assay: Static adhesion assay using 96-well plates coated with gangliosides). Conditions: static conditions; ganglioside coated on 96-well plates (25 to 200 ng); [3H]thymidine-labeled cells; control with mAb E1C.
Assay type: cell-based, Chinese hamster
From the text: Adhesion of E-selectin-expressing CHO cells to various quantities of poly-LacNAc gangliosides coated on 96-well plates (Falcon, Becton-Dickinson, Lincoln Park, N.J.). Points represent mean experimental minus control value in the presence of mAb E1C, ±SE of triplicate experiments. .circle-solid.SLe^x -Le^x, Δ Fr. 10-1, .tangle-solidup. Fr. 10-2, .quadrature. Fr. 9, .smallcircle. Fr. 12-2.
Static adhesion assay using 96-well plates: Poly-LacNAc gangliosides with SLe^x -Le^x structure and Frs. 9, 10-1, 10-2 and 12-2, dissolved in 50% ethanol, were serially diluted in 96-well plates (the first well contained 200 ng), and plates were dried at 37° C. for 5 hr. Plates with similar serial dilutions of poly-LacNAc gangliosides were prepared for control cell adhesion in the presence of mAb E1C (see above). E-selectin-expressing CHO cells (Handa et al., Int. J. Oncol. 6:773-781 (1995)) were metabolically labeled with [^3 H] thymidine and incubated for 2 days. Cell suspension (2×10^6 per mL) was prepared by 2 mM EDTA treatment of cultured cells. A 50 μL aliquot of this cell suspension (containing 1×10^5 cells; approximately 5000 cpm) was added to each well and incubated for 1 hr. As a control, EDTA-harvested cells were washed with DMEM and incubated with mAb E1C on ice for 30 min, followed by preparation of cell suspension as above, but containing 10 μg mAb E1C per mL. Aliquots were added to each well and incubated as above. Cells were washed 3× with PBS by inversion of the plate on blotting paper. Adherent cell count as measured by ^3 H activity was determined.
Additional details of the experiment whose data are shown in FIGS. 1A and 1B are as follows: SLe^x -Le^x and poly-LacNAc gangliosides (Frs. 7, 9, 10-1, 10-2, 12-2, 13-1 and 14) dissolved in 50% ethanol were appropriately diluted and coated on wells of 96-well plates (amounts of 25 to 200 ng as shown on abscissa). Wells were dried at 37° C. for 5 hr. Two identical plates (1 and 2) were prepared in this way. To each well of plate 1, 50 μL aliquots of RPMI containing 1×10^5 E-selectin-expressing CHO cells metabolically labeled with [^3 H] thymidine were added. To each well of plate 2, aliquots of the same cell preparation preincubated with anti-E-selectin mAb E1C (10 μg Ig per mL) and suspended in RPMI containing mAb E1C were added. Plates 1 and 2 were incubated for 25 min. and washed with PBS. […] Each well was filled with 200 μL of PBS, carefully shaken, and plates were inverted on blotting paper for 10 min. All non-adherent cells were sedimented and absorbed on the blotting paper. Adherent cells remaining on wells were counted. Cell numbers (expressed on ordinate) were calculated based on measured radioactivity. Solid circle, SLe^x -Le^x without E1C (from plate 1). Open circle, SLe^x -Le^x with E1C (from plate 2). Adhesion values from various poly-LacNAc gangliosides with and without E1C were all near zero and cannot be distinguished on the graph.
Static adhesion assay using 96-well plates: Poly-LacNAc gangliosides with SLe^x -Le^x structure, and Fr. 9, 10-1, 10-2, and 12-2, dissolved in 50% ethanol, were serially diluted in 96-well plates (the first well contained […]), and plates were dried at 37° C. for 5 hr. Plates with similar serial dilutions of poly-LacNAc gangliosides were prepared for control cell adhesion in the presence of mAb E1C […] (see above). E-selectin-expressing CHO cells (Handa et al., 1995, Int. J. Oncol. 6:773-781) were metabolically labeled with [^3 H]thymidine and incubated for 2 days. Cell suspension (2×10^6 per mL) was prepared by 2 mM EDTA treatment of cultured cells. A 50 μL aliquot of this cell suspension (containing 1×10^5 cells; about 5000 cpm) was added to each well and incubated for 1 hr. As a control, EDTA-harvested cells were washed with DMEM and incubated with mAb E1C (10 μg/ml) on ice for 30 min, followed by preparation of cell suspension as above, but containing 10 μg E1C per mL. Aliquots were added to each well and incubated as above. […]

| Substance | adhesion of E-selectin-expressing CHO cells |
| --- | --- |
| VI^3 NeuAcV^3 FucIII^3 FucnLc6 Cer [SLe^x -Le^x, reference compound] | much stronger adhesion than myelorollin (Frs. 13-1 and 14); also recorded: capable of binding E-selectin expressing cells |
| VIII^3 NeuAcIII^3 FucnLc8 Cer [Fr. 10-2] | little or no adhesion |
| VI^3 NeuAcnLc6 Cer [Fr. 7] | little or no adhesion |
| VIII^3 NeuAcV^3 FucnLc8 Cer [Fr. 10-1] | little or no adhesion |
| X^3 NeuAcVII^3 FucnLc10 Cer [Fr. 12-2] | little or no adhesion |

Same assay, conditions: static conditions; ganglioside coated on 96-well plates (25 to 200 ng); [3H]thymidine-labeled cells; control with mAb E1C; listed as SLE^x -Le^x

| Substance | adhesion of E-selectin-expressing CHO cells |
| --- | --- |
| VI^3 NeuAcV^3 FucIII^3 FucnLc6 Cer [SLe^x -Le^x, reference compound] | bound to E-selectin |
